Test results as given in US20240325544A1, “CATIONIC LIPID FOR COVALENT MODIFICATION OF PEPTIDES” (PharmalN Corporation, priority 2023, published 2024).
Bridge positions count the residues as written; N and C are the ends. Square brackets hold non-standard residues; d marks the D form. Peptide text beside a SMILES is read from it. * marks the point of attachment. Palmitoyl = CCCCCCCCCCCCCCCC(=O)*; Dab = NCC[C@H](N)C(=O)O; Dap = NC[C@H](N)C(=O)O; AEEA = NCCOCCOCC(=O)O

How the values were obtained:
C57BL/6J mice = assay: Survival in LPS induced sepsis model (FIG. 2A); type: in vivo; details: LPS 15 mg/kg IP; 0.3 mg/kg (0.1 μmol/kg) SC once, survival to 56 hours
Procedure: FIGS. 2A-2B: Single and repeat administration of cationic alkyl modified C-type Natriuretic Peptides increases probability of survival in LPS induced Sepsis and ALI animal models. FIG. 2A) Sepsis induction: Male C57BL/6J mice (n=10 per group; 3 groups) were injected IP with LPS (15 mg/kg) and treated with various test articles, including cationic alkyl modified CNPs (SEQ ID NO: 31 and 29; 0.3 mg/kg (0.1 μmol/kg) SC). The control group received LPS treatment without any test article. The test articles were administered immediately after LPS administration (marked with vertical dotted lines). Survival was monitored every 2 hours from 8-56 hours, after which the surviving mice were euthanized under isoflurane anesthesia. […] Survival was monitored every 8 hours for 72 hours, after which the surviving mice were euthanized under isoflurane anesthesia. […]
Animal care and treatment: Male C57BL/6J mice (6 weeks-old) were purchased from Kyudo (Saga, Japan) and maintained under a 12-hour light/12-hour dark cycle with free access to water and standard mouse diet (MF diet, Oriental Yeast Co., Ltd. Tokyo, Japan). […] Survival was monitored every 2 hours from 8-56 hours, after which the mice were euthanized under isoflurane anesthesia. […] Survival was monitored every 8 hours for 72 hours, after which the mice were euthanized under isoflurane anesthesia. […]

[1] = test system: E0771 breast cancer cells; assay: Orthotopic mouse model of breast cancer using E0771 cells (FIG. 6); type: in vivo, mice; details: 0.3 mg/kg (0.1 μmol/kg) SC once daily, 5 days on, 2 days off, 3 cycles
Procedure: Error bars represent standard error of the mean. FIG. 6A) Tumor growth kinetics of 6-week-old female C57BL/6J mice (n=10 per group) that were inoculated with E0771 breast cancer cells (250,000 cells/mouse) in the mammary gland. Starting from Day 4 post-inoculation, cationic alkyl modified CNP derivatives (SEQ ID NO: 29, 30, and 31) were administered subcutaneously at a bolus dose of 0.3 mg/kg (0.1 μmol/kg) once daily for 5 days (5 days on, 2 days off) for 3 cycles; dose days indicated by gridlines. The control group, which received only buffer, was dosed in the same manner to establish the baseline tumor growth kinetics. […] Therefore, it can be concluded that the attachment of CNP is important for the observed anti-tumor activity. Statistical analysis was based on Dunnett's test performed by using GraphPad (n=10, 10, 10, and 10; Control, SEQ ID NO: 29, SEQ ID NO: 30, and SEQ ID NO: 31) **** P<0.0001 vs Control group.
Therefore, it can be concluded that the attachment of CNP is essential for anti-tumor activity. […] Animal care and treatment: Female C57BL/6J mice (6 weeks-old) were purchased from Kyudo (Saga, Japan) and maintained under a 12-hour light/12-hour dark cycle with free access to water and standard mouse diet (MF diet, Oriental Yeast Co., Ltd. Tokyo, Japan or PicoLab Rodent Diet 20, LabDiet Corp., St. Louis, Missouri). Implantation and drug administration: Mice were implanted with E0771 breast cancer cells (250,000 cells/mouse; Cosmo Bio Tokyo, Japan) in their left mammary gland and were randomized into groups of n=10. Starting from Day 4 post-inoculation, cationic alkyl modified CNP derivatives (SEQ ID NOs: 29, 30, and 31) were administered subcutaneously at a bolus dose of 0.3 mg/kg (0.1 μmol/kg; with a dose volume of 10 mL/kg) in sterile water for injection (Otsuka Pharmaceutical, Tokushima, Japan) once daily for 5 days (5 days on, 2 days off) for 3 cycles. The control group, which received only buffer, was dosed in the same manner to establish the baseline tumor growth kinetics. Tumor sizes were measured using calipers. Statistical analysis was based on Dunnett's test performed by using GraphPad (n=10, 10, 10, and 10; Control, SEQ ID NO: 29, SEQ ID NO: 30, and SEQ ID NO: 31) **** P<0.0001 vs Control group.

Compound: CCCCCCCCCCCCCCCC(=O)NCCOCCOCC(=O)NCCOCCOCC(=O)NCCOCCOCC(=O)N[C@@H](CCN)C(=O)N[C@@H](CCN)C(=O)NCC(=O)N[C@@H](CC(C)C)C(=O)N[C@@H](CO)C(=O)N[C@@H](CCCCN)C(=O)NCC(=O)N[C@H]1CSSC[C@@H](C(=O)O)NC(=O)CNC(=O)[C@H](CC(C)C)NC(=O)CNC(=O)[C@H](CO)NC(=O)[C@H](CCC(N)=O)NC(=O)[C@H](CO)NC(=O)CNC(=O)[C@H]([C@@H](C)CC)NC(=O)[C@H](CCCNC(=N)N)NC(=O)[C@H](CC(=O)O)NC(=O)[C@H](CC(C)C)NC(=O)[C@H](CCCCN)NC(=O)[C@H](CC(C)C)NC(=O)CNC(=O)[C@H](Cc2ccccc2)NC1=O [SEQ ID NO: 29] ({Palmitoyl-AEEA-AEEA-AEEA}-[Dab][Dab]GLSKGCFGLKLDRIGSQSGLGC-OH; disulfide 8-24; C-terminus assumed)
- Survival (C57BL/6J mice): effective in improving survival
- Tumor volume compared to the Control group [1]: significant decrease in tumor volume

Compound: CCCCCCCCCCCCCCCC(=O)NCCOCCOCC(=O)NCCOCCOCC(=O)NCCOCCOCC(=O)N[C@@H](CN)C(=O)N[C@@H](CN)C(=O)NCC(=O)N[C@@H](CC(C)C)C(=O)N[C@@H](CO)C(=O)N[C@@H](CCCCN)C(=O)NCC(=O)N[C@H]1CSSC[C@@H](C(=O)O)NC(=O)CNC(=O)[C@H](CC(C)C)NC(=O)CNC(=O)[C@H](CO)NC(=O)[C@H](CCC(N)=O)NC(=O)[C@H](CO)NC(=O)CNC(=O)[C@H]([C@@H](C)CC)NC(=O)[C@H](CCCNC(=N)N)NC(=O)[C@H](CC(=O)O)NC(=O)[C@H](CC(C)C)NC(=O)[C@H](CCCCN)NC(=O)[C@H](CC(C)C)NC(=O)CNC(=O)[C@H](Cc2ccccc2)NC1=O [SEQ ID NO: 31] ({Palmitoyl-AEEA-AEEA-AEEA}-[Dap][Dap]GLSKGCFGLKLDRIGSQSGLGC-OH; disulfide 8-24; C-terminus assumed)
- Survival (C57BL/6J mice): effective in improving survival
- Tumor volume compared to the Control group [1]: significant decrease in tumor volume
